Laboratory results from patent US9169254B2, “Spiroimidazolone derivative” (Chugai Seiyaku Kabushiki Kaisha, priority 2009, dated 2015).

Target: T1, human PTH1 receptor (Homo sapiens, UniProt Q03431)
T1 sequence (Q03431 27-593): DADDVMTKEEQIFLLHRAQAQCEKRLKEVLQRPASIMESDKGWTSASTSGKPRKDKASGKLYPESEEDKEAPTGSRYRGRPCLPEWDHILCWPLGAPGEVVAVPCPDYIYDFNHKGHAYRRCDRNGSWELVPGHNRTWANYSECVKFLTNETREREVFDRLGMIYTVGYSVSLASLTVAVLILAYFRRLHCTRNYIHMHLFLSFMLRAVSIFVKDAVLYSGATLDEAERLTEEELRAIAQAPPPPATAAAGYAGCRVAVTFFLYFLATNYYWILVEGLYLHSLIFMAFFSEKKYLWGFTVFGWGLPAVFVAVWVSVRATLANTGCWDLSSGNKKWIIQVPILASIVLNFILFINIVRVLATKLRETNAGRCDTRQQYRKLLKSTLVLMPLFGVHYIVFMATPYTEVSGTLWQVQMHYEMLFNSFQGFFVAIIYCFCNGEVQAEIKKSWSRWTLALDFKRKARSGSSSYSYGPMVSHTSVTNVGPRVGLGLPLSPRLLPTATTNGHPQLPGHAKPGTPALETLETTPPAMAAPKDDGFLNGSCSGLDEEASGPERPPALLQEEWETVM
Experiment: In vitro cAMP signal activity in HKRK-B7 cells (LLC-PK1 cells overexpressing the human PTH1 receptor)
Type: cell-based
Conditions: HKRK-B7 cells; compound at 1×10^−3 M; cAMP produced as percentage of that produced by hPTH(1-34) at 100 nM

| Compound | cAMP production activity (%) |
| --- | --- |
| Cc1cc(C(=O)N2CCC(C)(O)CC2)cc(C)c1/C=C/S(=O)(=O)N1CCC2(CC1)N=C(c1ccc(Cl)c(OCC(F)(F)C(F)F)c1)NC2=O [Compound 1229, 2-[4-chloro-3-(2,2,3,3-tetrafluoro-propoxy)-phenyl]-8-{(E)-2-[4-(4-hydroxy-4-methyl-piperidine-1-carbonyl)-2,6-dimethyl-phenyl]-ethenesulfonyl}-1,3,8-triaza-spiro[4.5]dec-1-en-4-one] | 56% |
| Cc1cc(C(=O)N2CCC(C)(O)CC2)cc(C)c1/C=C/S(=O)(=O)N1CCC2(CC1)N=C(c1ccc(Cl)c(OCC(F)(F)C(F)(F)F)c1)NC2=O [Compound 1230, 2-[4-chloro-3-(2,2,3,3,3-pentafluoro-propoxy)-phenyl]-8-{(E)-2-[4-(4-hydroxy-4-methyl-piperidine-1-carbonyl)-2,6-dimethyl-phenyl]-ethenesulfonyl}-1,3,8-triaza-spiro[4.5]dec-1-en-4-one] | 64% |
| [2H]C([2H])([2H])C([2H])([2H])C([2H])([2H])C([2H])([2H])Oc1cc(C2=NC3(CCN(S(=O)(=O)/C=C/c4c(C)cc(C(=O)N5CCC(C)(O)CC5)cc4C)CC3)C(=O)N2)ccc1Cl [Compound 1231, 2-(3-[1,1,2,2,3,3,4,4,4-^2H9]butoxy-4-chloro-phenyl)-8-{(E)-2-[4-(4-hydroxy-4-methyl-piperidine-1-carbonyl)-2,6-dimethyl-phenyl]-ethenesulfonyl}-1,3,8-triaza-spiro[4.5]dec-1-en-4-one] | 88% |
| Cc1cc(C(=O)N2CCC(C)(O)CC2)cc(C)c1/C=C/S(=O)(=O)N1CCC2(CC1)N=C(c1ccc(OC(F)(F)F)c(OCCCC(F)(F)F)c1)NC2=O [Compound 1232, 8-{(E)-2-[4-(4-hydroxy-4-methyl-piperidine-1-carbonyl)-2,6-dimethyl-phenyl]-ethenesulfonyl}-2-[3-(4,4,4-trifluoro-butoxy)-4-trifluoromethoxy-phenyl]-1,3,8-triaza-spiro[4.5]dec-1-en-4-one] | 106% |
| [2H]C([2H])([2H])C([2H])([2H])C([2H])([2H])C([2H])([2H])Oc1cc(C2=NC3(CCN(S(=O)(=O)/C=C/c4c(C)cc(C(=O)N5CCC(C)(O)CC5)cc4C)CC3)C(=O)N2)cc(C(F)(F)F)c1 [Compound 1233, 2-(3-[1,1,2,2,3,3,4,4,4-^2H9]butoxy-5-trifluoromethyl-phenyl)-8-{(E)-2-[4-(4-hydroxy-4-methyl-piperidine-1-carbonyl)-2,6-dimethyl-phenyl]-ethenesulfonyl}-1,3,8-triaza-spiro[4.5]dec-1-en-4-one] | 78% |
| Cc1cc(C(=O)N2CCC(C)(O)CC2)cc(C)c1CCS(=O)(=O)N1CCC2(CC1)N=C(c1ccc(OC(F)(F)F)cc1)NC2=O [Compound 1234, 8-{2-[4-(4-hydroxy-4-methyl-piperidine-1-carbonyl)-2,6-dimethyl-phenyl]-ethanesulfonyl}-2-(4-trifluoromethoxy-phenyl)-1,3,8-triaza-spiro[4.5]dec-1-en-4-one] | 114% |
| Cc1cc(C2=NC3(CCN(S(=O)(=O)CCc4c(C)cc(C(=O)N5CCC(C)(O)CC5)cc4C)CC3)C(=O)N2)ccc1C(F)(F)F [Compound 1235, 8-{2-[4-(4-hydroxy-4-methyl-piperidine-1-carbonyl)-2,6-dimethyl-phenyl]-ethanesulfonyl}-2-(3-methyl-4-trifluoromethyl-phenyl)-1,3,8-triaza-spiro[4.5]dec-1-en-4-one] | 98% |
| Cc1cc(C(=O)N2CCC(C)(O)CC2)cc(C)c1CCS(=O)(=O)N1CCC2(CC1)N=C(c1ccc(C(F)(F)F)c(Cl)c1)NC2=O [Compound 1236, 2-(3-chloro-4-trifluoromethyl-phenyl)-8-{2-[4-(4-hydroxy-4-methyl-piperidine-1-carbonyl)-2,6-dimethyl-phenyl]-ethanesulfonyl}-1,3,8-triaza-spiro[4.5]dec-1-en-4-one] | 99% |
